Here are results for four molecules from patent US20080090895A1, “Novel Pharmaceutical Composition And Their Uses Thereof For Controlling The Different Forms Of Addiction To Drugs” (Trimaran Limited, priority 2004, published 2008).

Test [1] concerns male mice of OF1 strain. As to the kind of experiment: Measurement of the analgesia by the hotplate test. The class given is in vivo. As to the method:
(§1) The animals used in this study are male mice of OF1 strain weighing about 20 g at the start of the experiments (Charles River, France). They live in an environment whose daily lighting cycle (07:30 h; 17:30 h) is constant throughout the year, and the temperature is maintained at about 22° C. The mice have free access to water and food, and the experiments are performed in accordance with the international rules on ethics in animal experimentation.
(§2) The animals are treated chronically via the intraperitoneal route (IP) with amisulpride or physiological saline. The injections are performed twice a day, with an interval of about eight hours between each administration, over a period ranging between five days and three weeks. […] RB101 is administered on the day of the test intravenously (IV), 10 minutes before the start of the test (except for the measurements of locomotor activity performed immediately after injection).
3.2 Measurement of the Analgesia by the Hotplate Test
The mice are placed individually inside a cylinder, on a plate heated to 52±1° C. by a water circuit. The lag time for the jumping of the mice is measured, the value 100 of the percentage of analgesia corresponding to a time limited to 240 seconds in order to avoid skin lesions. The test is performed 10 minutes after injection of RB101 (5 mg/kg, IV) or of the vehicle. The results are expressed as a percentage of analgesia calculated by means of the following formula: (mean of the jumping lag times for the treated group—mean of the jumping lag times for the control group)/(240−mean of the jumping lag times for the control group)×100. The results are expressed as mean ±sem.

Test [2] deals with male mice of OF1 strain. The note with it: Baamonde et al., 1992; Browne, 1980; cited from earlier work.
Test [3] has as its system male mice of OF1 strain. As to conditions: Baamonde et al., 1992; cited from earlier work.
Test [4] deals with male mice of OF1 strain. As to the kind of experiment: Measurement of the locomotor activity. The class given is in vivo.
Test [5] deals with male mice of OF1 strain. As to the kind of experiment: Test of forced swimming (Porsolt's test): model of depression. The class given is in vivo. As to conditions: 0.25 mg/kg, IV. As to the method:
as §1, §2
3.3 Test of Forced Swimming (Porsolt's Test): Model of Depression
The mice are placed individually in a cylindrical container filled to a height of 15 cm with water, the water being at room temperature. After a delay of 2 minutes, the total immobile time of the animal is measured for 4 minutes. The movements necessary for the animal to keep its head above water are not counted.

In test [6] the test system is male mice of OF1 strain. As to the kind of experiment: Conditioned preference of place: measurement of the psychic dependency. The class given is in vivo. As to the method: as §1, §2
3.4 Conditioned Preference of Place: Measurement of the Psychic Dependency
The apparatus for conditioned preference of place consists of a box divided into three separate compartments: a black compartment with a smooth floor, a black and white stripy compartment with a rough floor, and a neutral central compartment.
The Test Proceeds in 3 Phases:
• a pretest phase: the animal is placed in the neutral central compartment and has free access to the three compartments of the apparatus for 20 minutes. The time spent in each compartment is recorded using a camera connected to a computer. The mice showing a spontaneous preference for one of the compartments (i.e. spending more than 75% of the allotted time in one of the side compartments) are removed from the experiment.
After this first session, the animals are randomized in order to assign a treatment to them (morphine or physiological saline, SC) and the compartment in which they will receive the drug (black or black and white stripy compartment). […]

Each structure is given as a SMILES string. Structures can show the parent of a compound that is named as a salt.

Turning to `CSCC[C@H](N)CSSCC(Cc1ccccc1)C(=O)N[C@@H](Cc1ccccc1)C(=O)OCc1ccccc1` (stereo partly drawn) [RB101], the “percentage of analgesia (hotplate, jumping lag time)” value is on record as 38.4%±10.8% in the test on male mice of OF1 strain [1] (RB101 5 mg/kg IV on the day of the test, alone or after amisulpride treatment for five days (20 mg/kg IP twice/day)) and 45.2%±10.6% with male mice of OF1 strain [1] (RB101 dose effect, 5 mg/kg intravenously, 10 minutes before the test, mean ±sem). The “effect of the substance alone on locomotor activity in mice (literature)” value in the test on male mice of OF1 strain [2] was “increase in locomotor activity”. For the same molecule, the “effect of RB101 alone on immobile time in forced swimming (literature)” value with male mice of OF1 strain [3] is “reduces the immobile time”.

Take `CCN1CCCC1CNC(=O)c1cc(S(=O)(=O)CC)c(N)cc1OC` (stereo not drawn) [amisulpride]: the “dose at which the reduction in locomotor activity is significant” value in the test with male mice of OF1 strain [4] (doses tested 0.5, 2, 10, 20 and 50 mg/kg) was ≥ 10 mg/kg.

For the molecule `CCC(=O)C(CC(C)N(C)C)(c1ccccc1)c1ccccc1` (stereo not drawn) [methadone, Methadone hydrochloride], in the test with male mice of OF1 strain [1] (0.25 mg/kg, IV), the “analgesia of methadone alone in the hotplate test” value is “pronounced analgesia”. For the same molecule, in the test on male mice of OF1 strain [4] (0.25 mg/kg, IV), the “effect of methadone alone in locomotor activity” value is recorded as “did not show a significant effect”. Also, in the test with male mice of OF1 strain [5], the “effect of methadone alone in forced swimming” value is “did not show a significant effect”. Besides, the “effect of the substance alone on locomotor activity in mice (literature)” value in the test with male mice of OF1 strain [2] is recorded as “hyperlocomotor activity”.

`CN1CC[C@]23c4c5ccc(O)c4O[C@H]2[C@@H](O)C=C[C@H]3[C@H]1C5.Cl` [morphine, morphine hydrochloride]: the “conditioned place preference (test 1)” value in the test with male mice of OF1 strain [6] (morphine 10 mg/kg SC conditioning, relative to the saline solution group) is listed as “Place preference is observed”. Also, the “conditioned place preference (test 2)” value in the test with male mice of OF1 strain [6] (morphine-conditioned mice, amisulpride 20 mg/kg IP twice a day for 5 days, RB101 IV on the day of test 2 (sixth day), or no such treatment, relative to control group) was “tendency toward persistence of the place preference”. Moreover, in the test with male mice of OF1 strain [6] (morphine-conditioned mice, four days after test 2, no RB101 on the day of test 3, with or without prior amisulpride+RB101 treatment), the “conditioned place preference (test 3)” value is “A place preference is found”.
